Here are results for 23 molecules from patent publication US7544703B2, “Cyclic compound having 4-pyridylalkylthio group having substituted or unsubstituted amino group introduced therein” (Santen Pharmaceutical Co., Ltd., priority 2004, dated 2009).

Each structure is given as a SMILES string. Counter-ions that a name gives are not always drawn.

For test [1], the system named is HUVEC (normal human umbilical vein endothelial cells). The test can be described thus: VEGF-induced HUVEC proliferation: cell proliferation inhibitory action test.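 Note: each well holds 100 µL cell suspension before compound addition.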 The class given is cell-based. The following applies: 72 h, 5 μL of 20 μg/mL test compound solution per well, WST-8 absorbance at 450 nm three days after VEGF addition, read-out: Cell proliferation inhibition rate (%). How it is done: A cell proliferation inhibitory action test of the compounds of the present invention was performed using a VEGF-induced HUVEC proliferation evaluation system (HUVEC stands for normal human umbilical vein endothelial cells), which is one of the widely-used methods of evaluating in vitro angiogenesis inhibitory effects of drugs. As one of the widely-used methods of evaluating angiogenesis inhibitory effects of drugs, a cell proliferation inhibitory action test using a VEGF-induced HUVEC proliferation reaction evaluation system has been reported in Cancer Res., 59, 99-106 (1999). According to the method described in the above-mentioned document, a cell proliferation inhibitory action test of the compounds of the present invention was performed, the cell proliferation inhibition rate was calculated, and the angiogenesis inhibitory effect of each of the compounds of the present invention was evaluated using the obtained rate as an index. Each test compound was dissolved in dimethyl sulfoxide (hereinafter abbreviated as DMSO), and the obtained solution was diluted with a commercially available phosphoric acid buffer solution (hereinafter abbreviated as PBS), whereby a 20 μg/mL test compound solution was prepared. HUVEC was suspended in a 0.5% fetal bovine serum (hereinafter abbreviated as FBS)-containing F12K medium, whereby a 2×10^4 cells/mL HUVEC suspension was prepared. VEGF was dissolved in 0.1% bovine serum albumin-containing PBS, and the obtained solution was diluted with the 0.5% FBS-containing F12K medium, whereby a 400 ng/mL VEGF solution was prepared. • 1) The HUVEC suspension was inoculated in an amount of 100 μL into each well of a 96-well plate coated with type I collagen (2×10^3 cells per well). • 2) One day after the inoculation, the test compound solution was added in an amount of 5 μL per well. • 3) One hour after the addition of the test compound solution, the VEGF solution was added in an amount of 5 μL per well. • 4) Three days after the addition of the VEGF solution, WST-8 assay kit (Dojin Chemical Co., Ltd.) was added in an amount of 10 μL per well. • 5) After 3 hours, the above-mentioned plate was attached to an absorptiometer (Multilabel Counter ARVO), and an absorbance at 450 nm of each well suspension (hereinafter referred to as test compound suspension) was measured. • 6) A test was carried out in the same manner as in the above 1) to 5) except that 1.0% DMSO was used instead of the test compound solution. The result was used as a control. Incubation was carried out under conditions of 37° C., 5% carbon dioxide and […] in an incubator throughout the above-mentioned test steps. The cell proliferation inhibition rate (%), which was used as an index of an angiogenesis inhibitory effect, was calculated according to the following calculation equation. Cell proliferation inhibition rate (%)=100−{(Absorbance of test compound suspension−A)/(absorbance of control−A)}×100 (Calculation Equation) A: Absorbance of only cell suspension (cell+medium) (Test Results and Discussion)
Background: Tetrazolium assays rely on reduction of a dye to a coloured formazan, in cell work by metabolically active cells.

Test [2] relates to B16 cells. The test can be described thus: Tumor growth inhibitory action test using cancer models in mice (B16 cells). The class given is in vivo. As to conditions: C57BL/6N mouse, B16 cells intradermal; 100 mg/kg/day oral once a day, day 0 to day 10; average of 9 mice per group; read-out: Tumor tissue weight inhibition rate (%). How it is done: A tumor growth inhibitory action test of the compounds of the present invention was performed using a tumor growth model in mice, which is one of the widely-used methods of evaluating in vivo anticancer effects of drugs.
As one of the widely-used methods of evaluating anticancer effects of drugs, a tumor growth inhibitory action test using cancer models in mice has been reported in Cancer Res., 59, 5209-5218 (1999). According to the method described in the above-mentioned document, a tumor growth inhibitory action test of the compounds of the present invention was performed, the tumor tissue weight inhibition rate was calculated, and the anticancer effect of each of the compounds of the present invention was evaluated using the obtained rate as an index.
A 1% aqueous methyl cellulose solution was added to each test compound to suspend it with a sonicator, whereby a 10 mg/mL test compound suspension was prepared.
Physiological saline was added to B16 cells, whereby a 3.3×10^7 cells/mL B16 cell suspension was prepared.
• 1) The back of each mouse (female, 6 weeks of age, C57BL/6N mouse) was depilated using a depilatory under Nembutal anesthesia. • 2) Several days after the depilation, the B16 cell suspension (300 μL) was injected intradermally into the back of the mouse under Nembutal anesthesia. • 3) From the B16 cell injection day (i.e. on day 0) to day 10, the test compound suspension (100 mg/kg/day) was orally administered once a day consecutively. • 4) Ten days after the injection of the cells, the mouse was euthanized with CO2 gas. • 5) A tumor tissue was enucleated from the mouse, and the weight of the tumor tissue was measured with an electronic balance. • 6) A test was performed in the same manner as in 1) to 5) except that the 1% aqueous methyl cellulose solution was used instead of the test compound suspension, and the result was used as a control. (Calculation of Tumor Tissue Weight Inhibition Rate)
A tumor tissue weight inhibition rate (the average of 9 mice per group), which was used as an index of anticancer effect, was calculated according to the following calculation equation. Tumor tissue weight inhibition rate (%)=100−(Mx/Mo)×100 (Calculation Equation) Mo: Tumor tissue weight of control group Mx: Tumor tissue weight of test compound solution administration group (Test Results and Discussion)

As for `Cc1cc(C)cc(NC(=O)c2cccnc2SCc2ccnc(N3CCOCC3)c2)c1` [Compound 1-4, N-(3,5-Dimethylphenyl)-2-(2-morpholinopyridin-4-ylmethylthio)pyridine-3-carboxamide], the inhibition at 20 µg/mL (stock) in test [1] stood at 100%. Moreover, the inhibition in vivo at 100 mg/kg/day in test [2] turned out to be 68%.

Regarding `CC(C)c1cccc(NC(=O)c2cccnc2SCc2ccnc(N)c2)c1` [Compound 3-2, 2-(2-Aminopyridin-4-ylmethylthio)-N-(3-isopropylphenyl)pyridine-3-carboxamide monohydrochloride], the inhibition at 20 µg/mL (stock) in test [1] was determined as 97%. In addition, the inhibition in vivo at 100 mg/kg/day in test [2] is 61%. Regarding `Cc1cc(C)cc(NC(=O)c2ccccc2SCc2ccnc(N)c2)c1` [Compound 3-20, 2-(2-Aminopyridin-4-ylmethylthio)-N-(3,5-dimethylphenyl)benzamide monohydrochloride], the inhibition at 20 µg/mL (stock) in test [1] is 100%. Further, the inhibition in vivo at 100 mg/kg/day in test [2] was found to be 42%. Take `CCC(=O)Nc1cc(CSc2ncccc2C(=O)Nc2cc(C)cc(C)c2)ccn1` [Compound 4-2, N-(3,5-Dimethylphenyl)-2-(2-propionylaminopyridin-4-ylmethylthio)pyridine-3-carboxamide]: in test [1], the inhibition at 20 µg/mL (stock) amounted to 100%. Besides, the inhibition in vivo at 100 mg/kg/day in test [2] came out at 51%. `CC(=O)Nc1cc(CSc2ncccc2C(=O)Nc2ccc(OC(F)(F)F)c(Cl)c2)ccn1` [Compound 4-14, 2-(2-Acetylaminopyridin-4-ylmethylthio)-N-(3-chloro-4-trifluoromethoxyphenyl)pyridine-3-carboxamide]: the inhibition in vivo at 100 mg/kg/day in test [2] is 44%. Still for that read-out and setting: as for `CC(=O)Nc1cc(CSc2ncccc2C(=O)Nc2cccc(Cl)c2)ccn1` [Compound 4-16, 2-(2-Acetylaminopyridin-4-ylmethylthio)-N-(3-chlorophenyl)pyridine-3-carboxamide], the figure is 74%. Take `CC(=O)Nc1cc(CSc2ncccc2C(=O)Nc2ccc3cn[nH]c3c2)ccn1` [Compound 4-22, 2-(2-Acetylaminopyridin-4-ylmethylthio)-N-(1H-indazol-6-yl)pyridine-3-carboxamide]: the inhibition at 20 µg/mL (stock) in test [1] is 97%. With `CC(=O)Nc1cc(CSc2ncccc2C(=O)Nc2cc(C)c(O)c(C)c2)ccn1` [Compound 4-37, 2-(2-Acetylaminopyridin-4-ylmethylthio)-N-(3,5-dimethyl-4-hydroxyphenyl)pyridine-3-carboxamide], in test [1], the inhibition at 20 µg/mL (stock) came to 100%. For `CC(=O)Nc1cc(CSc2ccccc2C(=O)Nc2ccc(Cl)cc2)ccn1` [Compound 4-42, 2-(2-Acetylaminopyridin-4-ylmethylthio)-N-(4-chlorophenyl)benzamide], the inhibition at 20 µg/mL (stock) in test [1] worked out at 100%. With `CC(=O)Nc1cc(CSc2ccccc2C(=O)Nc2cc(C)cc(C)c2)ccn1` [Compound 4-43, 2-(2-Acetylaminopyridin-4-ylmethylthio)-N-(3,5-dimethylphenyl)benzamide], the inhibition in vivo at 100 mg/kg/day in test [2] was found to be 47%. With `CC(=O)Nc1cc(CSc2ccccc2C(=O)Nc2ccc(C(C)(C)C)cc2)ccn1` [Compound 4-44, 2-(2-Acetylaminopyridin-4-ylmethylthio)-N-(4-tert-butylphenyl)benzamide], the inhibition at 20 µg/mL (stock) in test [1] is 85%. Same read-out and setting: next, `CC(=O)Nc1cc(CSc2ccsc2C(=O)Nc2ccc(Cl)cc2)ccn1` [Compound 4-57, 3-(2-Acetylaminopyridin-4-ylmethylthio)-N-(4-chlorophenyl)thiophene-2-carboxamide]: 100%. In the case of `CCCNC(=O)Nc1cc(CSc2ncccc2C(=O)Nc2cc(C)cc(C)c2)ccn1` [Compound 5-1, N-(3,5-Dimethylphenyl)-2-[2-(N′-n-propylureido)pyridin-4-ylmethylthio]pyridine-3-carboxamide], the inhibition at 20 µg/mL (stock) in test [1] was 100%.

Consider `Cc1cc(C)cc(NC(=O)c2cccnc2SCc2ccnc(NC(=O)NC(C)(C)C)c2)c1` [Compound 5-2, 2-[2-(N′-tert-Butylureido)pyridin-4-ylmethylthio]-N-(3,5-dimethylphenyl)pyridine-3-carboxamide], for which the inhibition at 20 µg/mL (stock) in test [1] came out at 100%. Still for that read-out and setting: next, `Cc1cc(C)cc(NC(=O)c2cccnc2SCc2ccnc(NC(=O)Nc3ccc(Cl)cc3)c2)c1` [Compound 5-3, 2-[2-(N′-4-Chlorophenylureido)pyridin-4-ylmethylthio]-N-(3,5-dimethylphenyl)pyridine-3-carboxamide]: 100%. Same read-out and setting: as for `Cc1cc(C)cc(NC(=O)c2cccnc2SCc2ccnc(NC=O)c2)c1` [Compound 6-1, N-(3,5-Dimethylphenyl)-2-(2-formylaminopyridin-4-ylmethylthio)pyridine-3-carboxamide], the figure is 100%. In the case of `Cc1cc(C)cc(NC(=O)c2cccnc2SCc2ccnc(Nc3ccccc3)c2)c1` [Compound 8-1, N-(3,5-Dimethylphenyl)-2-(2-phenylaminopyridin-4-ylmethylthio)pyridine-3-carboxamide], the inhibition at 20 µg/mL (stock) in test [1] was found to be 100%.

Turning to `CNC(=O)Nc1cc(CSc2ncccc2C(=O)Nc2ccc(OC(F)(F)F)cc2)ccn1` [Compound 9-2, 2-[2-(N′-Methylureido)pyridin-4-ylmethylthio]-N-(4-trifluoromethoxyphenyl)pyridine-3-carboxamide], the inhibition at 20 µg/mL (stock) in test [1] turned out to be 100%. The same measure, in the same setting: next, `CNC(=O)Nc1cc(CSc2ncccc2C(=O)Nc2ccc(Cl)cc2)ccn1` [Compound 9-3, N-(4-Chlorophenyl)-2-[2-(N′-methylureido)pyridin-4-ylmethylthio]pyridine-3-carboxamide]: 100%; `CNC(=O)Nc1cc(CSc2ncccc2C(=O)Nc2ccc(OC(F)F)cc2)ccn1` [Compound 9-4, N-(4-Difluoromethoxyphenyl)-2-[2-(N′-methylureido)pyridin-4-ylmethylthio]pyridine-3-carboxamide]: 100%.

With `CN(C)CCN(C)CC(=O)NC(Sc1ncccc1C(=O)Nc1ccc(OC(F)(F)F)cc1)c1ccncc1` (stereo not drawn) [Compound 17-28, 2-[2-(N-(2-Dimethylaminoethyl)-N-methylamino)acetylaminopyridin-4-ylmethylthio]-N-(4-trifluoromethoxyphenyl)pyridine-3-carboxamide], in test [1], the inhibition at 20 µg/mL (stock) amounted to 100%. Turning to `CN(C)CCN(C)CC(=O)NC(Sc1ncccc1C(=O)Nc1ccc(OC(F)F)cc1)c1ccncc1` (stereo not drawn) [Compound 17-50, N-(4-Difluoromethoxyphenyl)-2-[2-(N-(2-dimethylaminoethyl)-N-methylamino)acetylaminopyridin-4-ylmethylthio]pyridine-3-carboxamide], the inhibition at 20 µg/mL (stock) in test [1] is 100%. Still for that read-out and setting: as for `NCC(=O)Nc1cc(CSc2ncccc2C(=O)Nc2ccc(OC(F)F)cc2)ccn1` [Compound 18-1, 2-(2-Aminoacetylaminopyridin-4-ylmethylthio)-N-(4-difluoromethoxyphenyl)pyridine-3-carboxamide], the figure is 88%.
